Data published in patent US8569482B2, “Nanoparticulate probe for in vivo monitoring of tissue oxygenation” (priority 2003, dated 2013).
Values joined by “and” are separate entries in the source; they are usually repeats but may differ in a detail not shown here. Identical values can stand only once. “Also recorded” adds a separate entry of the source.

Assays:
[1] = system: mouse aortic endothelial cells (MAECs); type: cell-based
[2] = system: bovine lung microvascular endothelial cells (BLMVECs)
Protocol: Bovine Lung Microvasular Endothelial Cells (BLMVECs) Culture The BLMVECs used in this study were obtained from the VEC Technologies, Inc, New York. BLMVECs cultured in MEM were maintained in 75 mm flasks at 37° C. in a humidified atmosphere of 5% CO2/95% air and grown to contact-inhibited monolayers with a typical cobblestone morphology [157]. Cells from each primary flask were detached with 0.05% trypsin, resuspended in fresh medium, and cultured in complete medium to 70% confluency for other studies. Cells from passages 10-14 were used in all the experiments.
Preparation of Particulates for Cell Culture Studies Microcrystalline particulates of LiNc-BuO were suspended in complete MEM medium (10 mg/0.5 ml) and sonicated for 30 sec pulse for ten times on ice with a probe sonicator at a setting of 5. The particulate suspension was cooled for 1 min between two successive 30 sec bursts of sonication. At the end of sonication, the suspension was placed on ice for exactly 2 min to allow the heavier particulates to settle down at the bottom of the tube and the supernatant liquid was transferred to a separate tube for intracellular delivery. The solution contained fine particulates of LiNc-BuO with a particulate size <2 μm. All the preparations were carried out under sterile conditions.
Internalization of Particulates into Endothelial Cells BLMVECs, at 70% confluence (10^4 cells/35 mm dish), in 1 ml complete MEM were treated with 50 μl of LiNc-BuO particulate suspension that contained particulates of <2 μm prepared by procedure as described under Materials and Methods. The cells were maintained at 37° C. under 95% air/5% CO2 environment. At 6 h intervals, for 72 h, cells were examined under light microscope for internalization of LiNc-BuO particulates. […] The cell pellet was resuspended in MEM containing glucose (0.5 g per 500 ml), at a density of 2×10^5 cells/ml and used for EPR analysis. Cells after LiNc-BuO internalization and repeated washings were photographed under an inverted microscope while still adherent to the substratum of the 35 mm dish. Cell viability was assessed by light microscopy and Alamar Blue assay according to the manufacturer's recommendations. Cell separation by trypsinization was avoided to keep the cell morphology and function in tact.
A 20 μL volume of the cell suspension containing 4,000 cells and 10 μM TAM was drawn into a gas-permeable Teflon tube and subjected to EPR spectroscopy as described below. The measurements were also carried out with Menadione (50 μM) and KCN (100 μM).
EPR Measurements The EPR measurements were carried out using a Bruker X-band (9.8 GHz) spectrometer (Bruker Instruments, Karlshrue, Germany) equipped with TM110 cavity. EPR spectral acquisitions were performed using custom-developed data acquisition software (SPEX) that was capable of fully automated data acquisition and processing. Unless otherwise mentioned, the EPR line-widths reported are peak-to-peak widths (.Bpp) of the first derivative spectra.
Simultaneous Measurements of LiNc-BuO and TAM Line-Shapes LiNc-BuO and TAM were used as site specific oximetry probes to measure intra- and extracellular oxygen concentration, respectively. Both LiNc-BuO and TAM give a single-line EPR spectrum, whose amplitude (intensity) and width depend on the amount/concentration of the probe and oxygen, respectively.

[3] = system: K56 (an erythroleukemic cell line) and A 431 (an epidermal carcinoma cell line); details: 200 μM; cited from earlier work
[4] = system: gastrocnemius muscle tissue of C3H mice; experiment: Long-term stability and oxygen response of particulates implanted in gastrocnemius muscle; type: in vivo; details: versus original unimplanted particulate, through 180 day study
Protocol: Animal Studies Female C3H mice were used in the present work. The mice were supplied through the Frederick Cancer Research Center Animal Production, Frederick, Md. The animals were received at 6 weeks of age and housed five per cage in climate-controlled rooms and allowed food and acidified water ad lib. The animals were on average 50 days old at the time of experimentation and weighed 25±3 g. Experiments were conducted according to the principles outlined in the Guide for the Care and Use of Laboratory Animals prepared by the Institute of Laboratory Animal Resources, National Research Council.
Implantation of LiNc-BuO in Tumor and Gastrocnemius Muscle of Mice Mice were anesthetized with breathing of isoflurane (1.5%)—air mixture delivered through a nose cone. […]
Stability in Tissues In order to evaluate the long-term stability of these particulates in tissues, we implanted the particulates in the gastrocnemius muscle tissue of mice and performed repeated measurements of pO2 in the same animals over a period of time. […] The EPR spectrum of the particulate in the leg was recorded periodically up to 180 days following the implantation of particulate (FIG. 4). […] Mice were periodically sacrificed through the 180 day study period and tissue pO2 values were assessed to verify the registration of anoxic pO2 in the dead tissue. […]

[5] = system: Human arterial smooth muscle cells (HASMCs)
Protocol: Cultute of Smooth Muscle Cells Human arterial smooth muscle cells (HASMCs) were obtained from Clonetics, San Diego, Calif. at passage 4. Cells were cultured and passed in Ham's medium containing 225 ml of DMEM, 225 ml of F-12 medium, 50 ml of FBS (10%), 5 ml of glutamate and 5 ml of antibiotics in a final volume of 500 ml. Cell cultures were maintained at 37° C. under 95% air/5% CO2 environment in 35 mm dishes. HASMCs up to passage 11 were used in the current study.
Preparation of Particulates for Cell Culture Studies Fine crystals of freshly synthesized LiNc-BuO were suspended in Ham's medium (10 mg/0.5 ml) and sonicated ten times for 30 sec on ice with a probe sonicator at a setting of 5. The particulate mixture was cooled on ice for 1 min between two successive 30 sec burst of sonication. […] The size of the particulates for intracellular delivery was <2 μm as determined by optical microscopy.
Internalization of Particulates into Smooth Muscle Cells HMSMCs, at 70% confluence (10^4 cells/dish), in 1 ml Ham's medium were treated with 50 μl of LiNc-BuO particulate suspension that contained particulates of <2 μm prepared by the procedure as mentioned before. […] Cell viability was assessed by light microscopy and Alamar Blue assay according to the manufacturer's recommendations.

[6] = Reduction of particle size using high frequency ultrasound; type: physicochemical; details: after 20 kHz then 269-1062.4 kHz sonication in water
Protocol: LiNc-BuO particles were crushed to a fine powder using a spatula. LiNc-BuO (20 mg) was suspended in […] of water without any additives (a total of 5 samples were made). The samples were then sonicated at 20 kHz frequency. 20 kHz sonolysis was conducted at a power setting of “2” for a total time of 5 minutes. All 5 samples were sonicated in this way. The samples were then allowed to sit overnight. The following day, the supernatant was extracted from all samples and placed in a measuring cylinder to make a 5 ml sample of suspended, small particles in aqueous solution. 1 ml of this stock was used to determine the particle size. The remaining 4 ml stock LiNc-BuO suspension was sonicated at various frequencies in the following way: 1 ml stock was placed in a test tube and suspended in the ultrasound bath which was operated at either 269, 354, 803 or 1062.4 kHz and a power of 60 W for a total time of 10 minutes. The 1 ml sample was then diluted to 2 ml using Milli-Q filtered water and the particle size determined. […] The procedure yielded particulates with mean size, 240 nm, with a min size, 72 nm.

[7] = Effect of biological oxidoreductants, pH and radiation on EPR stability and oxygen response; type: physicochemical
Excerpt: Effect of Biological Oxidoreductants, pH, Temperature, and Radiation Since our goal was to use the newly synthesized particulate material for biological applications, we thoroughly investigated the EPR stability (paramagnetism) as well as sensitivity of the EPR line-width to molecular oxygen in presence of a variety of biological oxidants, reductants, pH and radiation. […] We also observed that pH of the medium in the range 2-10 had no effect on their EPR sensitivity to oxygen. We also treated the particulates with 15.5 Gy of Cobalt-60 γ-ray irradiation for 10 min and found no effect on the EPR properties of the particulates.

[8] = particulates <2 μm, within 18 h
[9] = switching gas between nitrogen and room air

c1ccc2c(c1)[I+]c1ccccc1-2 [DPI, diphenyleneiodonium chloride]
effect on oxygen consumption rate (OCR) [1]: complete inhibition of oxygen consumption; also recorded: complete inhibition of the OCR; also recorded: completely blocked

CC1=CC(=O)c2ccccc2C1=O [menadione]
effect on intra- and extracellular pO2 and oxygen gradient ([2]; menadione 50 μM, cyanide 100 μM, listed as Menadione): did not affect significantly
increase of intra- and extracellular pO2 [3]: 10-15%
effect on oxygen consumption rate (OCR) [1]: increased rates of oxygen consumption; also recorded: increased the OCRs
increase in OCR ([1]; 50 μM): two-fold increase
effect on OCR at lower concentrations ([1]; 10 and 50 μM, measured immediately): significant increase in the OCR
effect on OCR at higher concentrations ([1]; 100 and 200 μM, measured immediately): decrease in the OCR; also recorded: significantly less compared to the control values

C=C(C)[C@H]1Cc2c(ccc3c2O[C@@H]2COc4cc(OC)c(OC)cc4[C@@H]2C3=O)O1 [rotenone]
effect on oxygen consumption rate (OCR) [1]: complete inhibition of oxygen consumption; also recorded: complete inhibition of the OCR; also recorded: completely inhibited the consumption of oxygen

Lithium 5,9,14,18,23,27,32,36-octa-n-butoxy-2,3-naphthalocyanine [LiNc-BuO]
oxygen sensitivity of particulates recovered from dead tissue [4]: not changed
cytotoxicity (light microscopy, Alamar Blue) [2]: no cytotoxicity
viability of cells that internalized probe (Trypan blue exclusion) [2]: > 95%
mean spin density of particulates internalized in a single cell ([2]; in comparison with TAM standard): 6×10^11 spins/cell
cells that internalized the particulates [2, 8]: ~95%
cytotoxicity (light microscopy, Alamar Blue) [5]: no apparent cytotoxicity
internalization of particulates in cells [5, 8]: almost all the cells in the 35 mm dish internalized the particulates
mean particle size [6]: 240 nm
min particle size [6]: 72 nm
effect of gamma irradiation on EPR properties ([7]; 15.5 Gy Cobalt-60, 10 min): no effect
effect of pH on EPR sensitivity to oxygen ([7]; pH 2-10): no effect
effect of oxidants and reductants on EPR spectrum or oxygen response ([7]; superoxide, hydroxyl, H2O2, singlet oxygen, alkylperoxyl, nitric oxide, GSH, ascorbate, 30 min): did not show any effect
spin density relative to LiPc: seven-fold higher
anoxic peak-to-peak EPR line-width (0% oxygen, X-band, room temperature): 210 mg
peak-to-peak EPR line-width in room air (20.9% oxygen (159 mmHg)): 1550 mg
peak-to-peak EPR line-width in 100% oxygen (100% oxygen, 760 mmHg): 6675 mg
microwave power saturation (X-band): not saturable for up to 25 mW; also recorded: nonsatuarable up to 25 mW
oxygen sensitivity (slope of line-width versus pO2) (linear in pO2 range measured (0-160 or 0-760 mmHg)): 8.5 mG/mmHg
pO2 resolution (physiological range): ~0.2 mmHg and ~0.1 mmHg
peak-to-peak EPR line-width at 10% oxygen (suspended in PBS, 10% oxygen (pO2 76 mmHg)): 852 mg
response time, deoxygenation [9]: ~20 s
response time, oxygenation [9]: ~1 s
effect of aqueous dispersion media on line-width and lineshape (water, PBS, cell culture media): not affected
